Patent publication US20240269197A1, “INSULIN-SENSITIZING AGENT AND BUTYRATE-PRODUCING BACTERIUM” (priority 2021, published 2024)
Structures can show the parent of a compound that is named as a salt.

system: subjects aged 18-65 years with a HOMA(-IR) score between 2.5 and 3.5 (insulin resistance); experiment: Reduction in HOMA-IR after 28 days of (non-)butyrate-producing bacteria with or without (non-)insulin-sensitizing agents (Experimental Example 1); type: in vivo, human; design: key: Non-measurable: the first rank describes the lowest effect; Very low: very low; Low: low; Low/medium: low/medium; Medium: medium; High: high; Very high: the last rank describes the highest effect; conditions: supplement alone, bacterium placebo
Text: The term ‘insulin resistance’ is well known by the skilled person. Within this disclosure, the term encompasses all conditions diagnosed as ‘insulin resistance’ by an (authorized) medical practitioner. The term ‘insulin resistance’ as used herein preferably refers to peripheral insulin resistance and/or hepatic insulin resistance. Insulin resistance may be diagnosed, for example, by the gold standard that is the “hyperinsulinemic euglycemic clamp” (DeFronzo R A, Tobin J D, Andres R, Am J Physiol. 1979 September; 237(3): E214-23). This method measures the amount of glucose necessary to compensate for an increased insulin level without causing hypoglycemia. The procedure may take two hours and typically involves the following steps: Through a peripheral vein, insulin is infused at 10-120 mU per m^2 per minute. In order to compensate for the insulin infusion, glucose 20% is infused to maintain blood sugar levels between 5 and 5.5 mmol/L. The rate of glucose infusion is determined by checking the blood sugar levels every five to ten minutes (Muniyappa R, Lee S, Chen H, Quon M J, January 2008, American Journal of Physiology. Endocrinology and Metabolism. 294 (1): E15-26). […] The homeostatic model assessment for insulin resistance (HOMA or HOMA-IR) is an alternative method used to determine and quantify insulin resistance in a fasting steady-state condition, and correlates reasonably with the golden standard (See e.g., Matthews D R, Hosker J P, Rudenski A S, Naylor B A, Treacher D F, Turner R C (1985). Diabetologia. 28 (7): 412-9. Doi:10.1007/BF00280883. PMID 3899825; and/or A. S. Rudenski; D. R. Matthews; J. C. Levy; R. C. Turner (1991) Metabolism. 40 (9): 908-917). […] The HOMA(-IR) value can be calculated by the following equation: […]
Mixed male/female subjects aged 18-65 years with a HOMA(-IR) score between 2.5 and 3.5, thus indicating insulin resistance, are included in the study. The HOMA-IR can be determined as described herein elsewhere. The HOMA(-IR) is measured at baseline and after 28 days. […]

**Q.** With `CN(C)C(=N)NC(=N)N` [Metformin, 1,1-dimethylbiguanide hydrochloride, reference compound] as the molecule, how does the “reduction in HOMA-IR value” read?
**A.** Low/medium

**Q.** `OC[C@@H](O)[C@@H](O)[C@H](O)[C@@H](O)CO` [Sorbitol, D-glucitol] was tested. Which “reduction in HOMA-IR value” did it give?
**A.** Low/medium

**Q.** Which “reduction in HOMA-IR value” does the source give for chromium(III) picolinate here?
**A.** Very low
